In patent US20220087990A1, “APPLICATION OF RIFAMYCIN-QUINOLIZIDONE CONJUGATE MOLECULE AND PHARMACEUTICALLY ACCEPTABLE SALT THEREOF” (priority 2019, published 2022):
Like-named read-outs stand apart in the source and are kept apart here.

What was measured:
Type in all cases: in vivo, Staphylococcus aureus; Balb/c mice
[1] = system: quinolone-resistant Staphylococcus aureus CB1840 (norA^up); conditions: I 30 mg/kg, rifampicin+levofloxacin 20+25 mg/kg
[2] = system: Staphylococcus aureus CB1857 (parC^S80F+norA^up); assay: Mouse subcutaneous catheter implant biofilm infection model
Description: (§1) Test Drug: rifamycin-quinolizidone conjugate molecule I was provided by TenNor Therapeutics, Ltd., and was stored at −20° C. Other test compounds and reagents are commercially available. […] For remaining test agents, aqueous vehicles of sterile water, 5% sodium bicarbonate or 0.9% normal saline were added to the compound shown in formula I. The rifamycin-quinolizidone conjugate molecule formulation shown in formula I was administered at 30 mg/kg.
(§2) Bacteria: The bacteria used were biofilm forming Staphylococcus aureus strains. These were a wild-type parent biofilm strain CB1406 and it's isogenic fluoroquinoline-resistant derivatives CB1823 (parC^S80F), CB1840 (norA^up) and CB1857 (parC^S80F30 norA^up). Minimal inhibit concentrations (MICs) were determined by broth microdilution assays recommended by CLSI.
(§3) Test animals: female 5-6 week old Balb/c mice were used in this embodiment. The mice had free access to food and water during the course of this test and animal procedures were compliant with UNTHSC Institutional Animal Care and Use Committee (IACUC) guidelines.
(§4) In vitro preparation of colonized implants: Teflon venous catheters (14-Guage AbboCath-T #271-1000 or Braun Introcan #425 2594) were cut into 1 cm segments, sterilized by soaking in 70% ethanol for 15 minutes, dried under UV light for 20 minutes followed by aseptic placement in sterile 1.5 mL polypropylene tubes warmed to 37° C. Inocula were prepared by growing overnight broth cultures, which were diluted in 1:10 in tryptic soy broth plus 0.25% glucose (TSBG) and incubated with 250 rpm at 37° C. for 1 hour. Cultures were diluted to 1.0E+0^6 CFU/mL in 37° C. TSBG, 1 mL was added to each catheter tube, incubated at 37° C. without shaking for an additional 2.5 hours, and then cooled to 18° C. to slow growth until implant surgeries were completed.
(§5) Formation and treatments of subcutaneous implant infections: the mice were anesthetized with isoflurane vapors (4 L/min). Each flank was shaved, sterilized with ethanol/betadine and two 3 mm incisions made. Subcutaneous pockets were excavated, then catheter segments pre-colonized with adherent bacteria inserted into the pockets closed with surgical staples. The mice were returned to their cages and regularly monitored for adverse reactions. Treatments were initiated one week post surgery (bacterial colonization and biofilm formation) twice daily by intraperitoneal injections (IP) for 7 days, 7 days treatment plus a 7 days rebound period with no treatment and 7 days treatment plus 7 days rebound+7 days re-treatment with 5 mice (total 10 implants) per treatment or sampling group. Implant-associated bacteria were monitored by sampling colonized catheter segments during the course of implant surgeries and at regular intervals for up to 28 days post infection.
(§6) Sampling of infected implants: infected mice were euthanized by CO2 inhalation, then flanks were sterilized with 70% ethanol, and the infected catheter segments were excised into 1 mL of phosphate buffered saline pH 7.2 (1×PBS). Bacteria that adhered to the internal surfaces of explanted catheter segments were mechanically disrupted (aseptically) by repeated draws/dispenses of 200 μL 1×PBS from a micropipette tip inserted into catheter lumens, followed by 5 min vortexing at high speed. Explanted samples were then snap frozen in dry ice/ethanol and stored at −80° C. until CFU counts were determined.
(§7) CFU count determination: the catheters were rapidly thawed in a 37° C. water bath, and vortexed for 2 minutes, serially diluted and spotted (8 μL) on agar plates. Viable cell counts for efficacy were determined by plating on drug free Charcoal or MHII agar plates. […] The detection limit for all CFU determinations was less than or equal to 2.09 log10 CFU/implant.
(§8) The counts were multiplied by the serial dilution factor. The resulting raw values were converted to log10 CFU for calculation of means and standard deviations.

[3] = system: quinolone-resistant Staphylococcus aureus CB1823 (parC^S80F); conditions: I 30 mg/kg, rifampicin+levofloxacin 20+25 mg/kg
[4] = system: S. aureus CB1406, CB1823, CB1840 and CB1857; conditions: rebound dosing regimen, mean over strains
Description: as §1, §2, §3, §4, §5, §6, §7, §8

[5] = system: quinolone-resistant Staphylococcus aureus CB1840 (norA^up); conditions: for log10 CFU reduction in bacterial counts: rebound regimen
Description: as §1, §2, §3, §4, §5, §6, §7, §8

[6] = system: quinolone-resistant Staphylococcus aureus CB1823 (parC^S80F); conditions: for log10 CFU reduction in bacterial counts: rebound regimen
Description: as §1, §2, §3, §4, §5, §6, §7, §8

[7] = system: Staphylococcus aureus CB1406 (wild type); conditions: for mean Log10 CFU/catheter / log10 CFU reduction in bacterial counts: CB1406; for log10 CFU reduction in bacterial counts: rebound regimen
Description: as §1, §2, §3, §4, §5, §6, §7, §8

[8] = 14-day treatment regimen, Day 21, IP bid
[9] = 14-day treatment regimen, Day 7 (initiation of treatment)
[10] = rebound treatment regimen, Day 7 (initiation of treatment)
[11] = rebound treatment regimen, Day 14 (after 7 days of administration), IP bid, I 30 mg/kg, rifampicin+levofloxacin 20+25 mg/kg
[12] = rebound treatment regimen, Day 21 (7 days of rebound)
[13] = rebound treatment regimen, Day 28 (7 days of re-treatment)
[14] = following additional 7 treatment days

For `CO[C@H]1/C=C/O[C@@]2(C)Oc3c(C)c(O)c4c(O)c(c(/C=N/N5CCC(N(C)C6([C@@H]7CCN(c8c(F)cn9c(=O)c(C(=O)O)cc(C%10CC%10)c9c8C)C7)CC6)CC5)c(O)c4c3C2=O)NC(=O)/C(C)=C\C=C\[C@H](C)[C@H](O)[C@@H](C)[C@@H](O)[C@@H](C)[C@H](OC(C)=O)[C@@H]1C` [I], the “mean Log10 CFU/catheter” value [1, 8] was 2.10 Log10 CFU/catheter, the “log10 CFU reduction in bacterial counts at the catheter site” value ([1]; 14 consecutive days bid) was 4.9 log10 CFU and the “mean Log10 CFU/catheter” value [2, 9] was 6.81 Log10 CFU/catheter. For the same compound, the “mean Log10 CFU/catheter” value ([2]; 14-day treatment regimen, Day 21, IP bid, I 30 mg/kg, rifampicin+levofloxacin 20+25 mg/kg) was 2.30 Log10 CFU/catheter, the “log10 CFU reduction in bacterial counts at the catheter site” value ([2]; 14 consecutive days bid, I 30 mg/kg, rifampicin+levofloxacin 20+25 mg/kg) was 4.5 log10 CFU and the “log10 CFU reduction in bacterial counts” value ([2]; rebound regimen, following 7 days of treatment) was 2.5 log10 CFU. The “mean Log10 CFU/catheter” value [2, 10] was 6.81 Log10 CFU/catheter, the “mean Log10 CFU/catheter” value [2, 11] was 4.26 Log10 CFU/catheter and the “mean Log10 CFU/catheter” value [2, 12] was 2.40 Log10 CFU/catheter. For the same compound, the “mean Log10 CFU/catheter” value [2, 13] was 2.45 Log10 CFU/catheter, the “mean Log10 CFU/catheter” value [3, 8] was 2.70 Log10 CFU/catheter and the “log reduction in bacterial counts at the catheter site” value ([3]; 14 consecutive days bid) was 4.3 log. For the same compound, the “Mean Log10 CFU reduction” value ([4]; following 7 days of re-treatment) was 4.6 Log10 CFU, the “Mean Log10 CFU reduction” value ([4]; following 7 days of treatment) was 2.4 Log10 CFU and the “Mean Log10 CFU reduction” value ([4]; following 7 days untreated (rebound)) was 4.6 Log10 CFU. For the same compound, the “mean Log10 CFU/catheter” value [5, 9] was 7.01 Log10 CFU/catheter, the “log10 CFU reduction in bacterial counts” value ([5]; following 7 days of treatment) was 2.4 log10 CFU and the “log10 CFU reduction in bacterial counts” value ([5]; following 7 days untreated) was 4.9 log10 CFU. The “log10 CFU reduction in bacterial counts” value [5, 14] was 4.9 log10 CFU, the “mean Log10 CFU/catheter” value [5, 10] was 7.01 Log10 CFU/catheter and the “mean Log10 CFU/catheter” value [5, 11] was 4.61 Log10 CFU/catheter. For the same compound, the “mean Log10 CFU/catheter” value [5, 12] was 2.10 Log10 CFU/catheter, the “mean Log10 CFU/catheter” value [5, 13] was 2.10 Log10 CFU/catheter and the “mean Log10 CFU/catheter” value [6, 9] was 7.03 Log10 CFU/catheter. For the same compound, the “log10 CFU reduction in bacterial counts” value ([6]; following 7 days of treatment) was 2.4 log10 CFU, the “log10 CFU reduction in bacterial counts” value ([6]; following 7 days untreated) was 4.4 log10 CFU and the “log10 CFU reduction in bacterial counts” value [6, 14] was 4.5 log10 CFU. The “mean Log10 CFU/catheter” value [6, 10] was 7.03 Log10 CFU/catheter, the “mean Log10 CFU/catheter” value [6, 11] was 4.61 Log10 CFU/catheter and the “mean Log10 CFU/catheter” value [6, 12] was 2.61 Log10 CFU/catheter. For the same compound, the “mean Log10 CFU/catheter” value [6, 13] was 2.70 Log10 CFU/catheter, the “mean Log10 CFU/catheter” value ([7]; 14-day treatment regimen, Day 7 (before treatment)) was 6.82 Log10 CFU/catheter and the “log10 CFU reduction in bacterial counts” value ([7]; following 7 days of treatment) was 2.1 log10 CFU. For the same compound, the “log10 CFU reduction in bacterial counts” value ([7]; following 7 days untreated) was 4.6 log10 CFU, the “log10 CFU reduction in bacterial counts” value [7, 14] was 4.7 log10 CFU and the “mean Log10 CFU/catheter” value ([7]; rebound treatment regimen, Day 7 (before treatment)) was 6.82 Log10 CFU/catheter. For the same compound, the “mean Log10 CFU/catheter” value [7, 12] was 2.20 Log10 CFU/catheter, the “mean Log10 CFU/catheter” value [7, 13] was 2.10 Log10 CFU/catheter and the “log reduction in bacterial colony counts at the catheter site” value ([7]; mouse, in vivo) was 4.6 log.
